Test results reported in the NIST ThermoML archive (doi:10.1016/j.fluid.2007.08.010).
Numbers after ± are expanded uncertainties.

Assay: xn = mol fraction of the nth substance listed
Details: Liquid, Falling or rolling sphere viscometry

CCCCCCCCCCCCCC [tetradecane] + c1ccccc1
viscosity [mPa·s]
Details | 690 kPa | 5000 kPa | 10000 kPa | 20000 kPa | 30000 kPa | 40000 kPa | 50000 kPa | 60000 kPa
313.2 K, x2 = 0.179 | 1.393 ± 0.057 | 1.461 ± 0.06 | 1.538 ± 0.063 | 1.695 ± 0.069 | 1.86 ± 0.076 | 2.036 ± 0.083 | 2.224 ± 0.091 | 2.434 ± 0.1
313.2 K, x2 = 0.436 | 1.103 ± 0.045 | 1.159 ± 0.047 | 1.223 ± 0.05 | 1.347 ± 0.055 | 1.473 ± 0.06 | 1.6 ± 0.065 | 1.729 ± 0.071 | 1.866 ± 0.076
313.2 K, x2 = 0.602 | 0.905 ± 0.037 | 0.955 ± 0.039 | 1.011 ± 0.041 | 1.118 ± 0.046 | 1.225 ± 0.05 | 1.329 ± 0.054 | 1.432 ± 0.058 | 1.535 ± 0.063
313.2 K, x2 = 0.798 | 0.679 ± 0.028 | 0.712 ± 0.029 | 0.753 ± 0.031 | 0.835 ± 0.034 | 0.916 ± 0.037 | 1 ± 0.041 | 1.081 ± 0.044 | 1.16 ± 0.047
333.2 K, x2 = 0.179 | 1.045 ± 0.043 | 1.098 ± 0.045 | 1.157 ± 0.047 | 1.273 ± 0.052 | 1.389 ± 0.057 | 1.515 ± 0.062 | 1.657 ± 0.068 | 1.846 ± 0.076
333.2 K, x2 = 0.436 | 0.838 ± 0.034 | 0.884 ± 0.036 | 0.935 ± 0.038 | 1.037 ± 0.042 | 1.135 ± 0.046 | 1.228 ± 0.05 | 1.319 ± 0.054 | 1.421 ± 0.058
333.2 K, x2 = 0.602 | 0.688 ± 0.028 | 0.728 ± 0.03 | 0.775 ± 0.032 | 0.862 ± 0.035 | 0.946 ± 0.039 | 1.032 ± 0.042 | 1.115 ± 0.045 | 1.216 ± 0.05
333.2 K, x2 = 0.798 | 0.528 ± 0.022 | 0.557 ± 0.023 | 0.592 ± 0.024 | 0.661 ± 0.027 | 0.73 ± 0.03 | 0.797 ± 0.032 | 0.863 ± 0.035 | 0.927 ± 0.038
353.2 K, x2 = 0.179 | 0.819 ± 0.034 | 0.855 ± 0.035 | 0.904 ± 0.037 | 0.996 ± 0.041 | 1.08 ± 0.044 | 1.168 ± 0.048 | 1.278 ± 0.052 | 1.391 ± 0.057
353.2 K, x2 = 0.436 | 0.614 ± 0.025 | 0.662 ± 0.027 | 0.705 ± 0.029 | 0.793 ± 0.032 | 0.883 ± 0.036 | 0.956 ± 0.039 | 1.032 ± 0.042 | 1.116 ± 0.046
353.2 K, x2 = 0.602 | 0.537 ± 0.022 | 0.566 ± 0.023 | 0.601 ± 0.025 | 0.668 ± 0.027 | 0.739 ± 0.03 | 0.809 ± 0.033 | 0.878 ± 0.036 | 0.959 ± 0.039
353.2 K, x2 = 0.798 | 0.421 ± 0.017 | 0.443 ± 0.018 | 0.469 ± 0.019 | 0.523 ± 0.021 | 0.578 ± 0.024 | 0.634 ± 0.026 | 0.69 ± 0.028 | 0.745 ± 0.03
373.2 K, x2 = 0.179 | 0.596 ± 0.024 | 0.635 ± 0.026 | 0.678 ± 0.028 | 0.765 ± 0.031 | 0.849 ± 0.035 | 0.926 ± 0.038 | 1.001 ± 0.041 | 1.07 ± 0.044
373.2 K, x2 = 0.436 | 0.485 ± 0.02 | 0.515 ± 0.021 | 0.549 ± 0.022 | 0.62 ± 0.025 | 0.688 ± 0.028 | 0.753 ± 0.031 | 0.819 ± 0.033 | 0.879 ± 0.036
373.2 K, x2 = 0.602 | 0.43 ± 0.018 | 0.452 ± 0.018 | 0.477 ± 0.019 | 0.533 ± 0.022 | 0.59 ± 0.024 | 0.646 ± 0.026 | 0.704 ± 0.029 | 0.761 ± 0.031
373.2 K, x2 = 0.798 | 0.356 ± 0.015 | 0.371 ± 0.015 | 0.389 ± 0.016 | 0.427 ± 0.017 | 0.467 ± 0.019 | 0.509 ± 0.021 | 0.553 ± 0.023 | 0.598 ± 0.024
393.2 K, x2 = 0.179 | 0.466 ± 0.019 | 0.495 ± 0.02 | 0.531 ± 0.022 | 0.601 ± 0.025 | 0.67 ± 0.027 | 0.738 ± 0.03 | 0.804 ± 0.033 | 0.868 ± 0.036
393.2 K, x2 = 0.436 | 0.394 ± 0.016 | 0.419 ± 0.017 | 0.445 ± 0.018 | 0.496 ± 0.02 | 0.554 ± 0.023 | 0.61 ± 0.025 | 0.662 ± 0.027 | 0.717 ± 0.029
393.2 K, x2 = 0.602 | 0.347 ± 0.014 | 0.368 ± 0.015 | 0.39 ± 0.016 | 0.436 ± 0.018 | 0.479 ± 0.02 | 0.524 ± 0.021 | 0.565 ± 0.023 | 0.604 ± 0.025
393.2 K, x2 = 0.798 | 0.307 ± 0.013 | 0.32 ± 0.013 | 0.336 ± 0.014 | 0.367 ± 0.015 | 0.398 ± 0.016 | 0.432 ± 0.018 | 0.466 ± 0.019 | 0.499 ± 0.02
